Our source for the IC50 values is US8288371B2, “Ortho pyrrolidine, benzyl-substituted heterocycle CCR1 antagonists for autoimmune diseases and inflammation” (Pharmacopeia, LLC, priority 2007, dated 2012).

A value given as a limit tells only on which side of the number the result lay.

In this experiment the target is T1, human CCR1 (Homo sapiens, UniProt P32246).
T1 sequence (P32246 1-355): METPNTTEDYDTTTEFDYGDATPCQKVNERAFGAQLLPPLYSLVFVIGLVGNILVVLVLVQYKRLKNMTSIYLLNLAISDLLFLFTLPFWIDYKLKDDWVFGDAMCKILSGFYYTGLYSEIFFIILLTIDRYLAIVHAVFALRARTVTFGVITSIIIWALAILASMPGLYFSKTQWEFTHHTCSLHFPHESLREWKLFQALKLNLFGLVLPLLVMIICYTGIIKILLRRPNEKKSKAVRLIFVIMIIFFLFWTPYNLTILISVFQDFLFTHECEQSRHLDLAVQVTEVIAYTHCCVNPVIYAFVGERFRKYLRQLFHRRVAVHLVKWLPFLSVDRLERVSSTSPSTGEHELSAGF
The experiment in a line: CCR1 binding protocol (SPA, [125I]-MIP-1α displacement). To be noted: cell membrane expressing human CCR1, 0.1 nM [125I]-MIP-1α, 4 hours at ambient temperature; read-out: Relative potency (IC50). Summed up:
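Human CCR1 membranes (0.5 μg/well) on SPA beads were incubated with compound and 0.1 nM [125I]-MIP-1α (final) for 4 h at ambient temperature. Buffer was Tris pH 7.4 with NaCl, KCl, MnCl and 0.1% BSA. IC50 came from ½-log compound dilutions (10 mM top DMSO stock) by displacement of bound radioligand.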
With `Cc1nnc([C@H]2CCCN2C(=O)Nc2ccc3c(c2)N(C)C(=O)CO3)n1Cc1ccc(Cl)cc1` [Compound 137], the IC50 lay within 50 to 500 nM.
Next, `Cc1nnc([C@H]2CCCN2C(=O)N[C@@H](C)c2ccccc2)n1Cc1ccc(Cl)cc1` [Compound 227]: 50 to 500 nM; `Cc1nnc([C@H]2CCCN2C(=O)N[C@@H](C)c2ccc3ccccc3c2)n1Cc1ccc(Cl)cc1` [Compound 131]: < 50 nM; `Cc1nnc([C@H]2CCCN2C(=O)N[C@@H]2CC(C)(C)Oc3cc(C(F)(F)F)ccc32)n1Cc1ccc(Cl)cc1` [Compound 262]: 500 to 5000 nM.

As usually defined, the IC50 is the midpoint of a concentration-inhibition curve.
